According to patent US11000033B2, “Ketone or oxime compound, and herbicide” (NISSAN CHEMICAL CORPORATION, priority 2014, dated 2021):

Experiments:
Format in all cases: in vivo
Abutilon theophrasti = test: Test Example 4: herbicidal effect by soil treatment (symbol M); settings: for M: Abutilon theophrasti, herbicidal effect grade: 320 g/ha; for Herbicidal effect grade, M: Abutilon theophrasti: application herbicide amount 320 g/ha
Method in brief: (§1)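 Seeds were sown in sterilized diluvial soil, covered with about 1.5 cm of soil, and the soil surface was sprayed with a water-diluted emulsion of the compound at a predetermined rate. Plants grew in a greenhouse at 25° C. to 30° C.; effects were scored visually 3 weeks after application.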

Monochoria vaginalis = test: Test Example 2: herbicidal activity, application during weed generation in submerged conditions (symbol C); settings: Table 23; application herbicide amount 320 g/ha; grade 0-5 by criteria of Test Example 1
Method in brief: (§2)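 Submerged alluvial soil (4 cm) sown with mixed seed; greenhouse 25–30° C. 1–2 leaf: diluted emulsion onto water surface, preset dose. Visual score, 3 wk.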

Scirpus juncoides = test: Test Example 2: herbicidal activity, application during weed generation in submerged conditions (symbol B); settings: Table 23; application herbicide amount 320 g/ha; grade 0-5 by criteria of Test Example 1
Method in brief: as §2

Amaranthus retroflexus = test: Test Example 5: herbicidal effect by foliage application, plastic box (symbol N); settings: 320 g/ha, 3 weeks after application
Method in brief: (§3)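 Seeds were sown in sterilized diluvial soil, covered with about 1.5 cm of soil and grown 14 days in a greenhouse at 25° C. to 30° C. An emulsifiable formulation diluted in water to a set rate was sprayed over foliage, and injury was scored 3 weeks later.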

soybean [1] = test: Test Example 4: effect on crop by soil treatment (symbol d); settings: for d: soybean, effect grade on crop: 320 g/ha; for Effect on crop grade, d: soybean: application herbicide amount 320 g/ha
Method in brief: (§4)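 Steps: fill box with sterilized diluvial soil; sow seed spot-like; cover with ~1.5 cm soil; grow in greenhouse (25° C. to 30° C.).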

Avena fatua = test: Test Example 4: herbicidal effect by soil treatment (symbol I); settings: for I: Avena fatua, herbicidal effect grade: 320 g/ha; for Herbicidal effect grade, I: Avena fatua: application herbicide amount 320 g/ha
Method in brief: as §1

corn = test: Test Example 5: effect on crop by foliage application, plastic box (symbol c); settings: 320 g/ha, 3 weeks after application
Method in brief: (§5)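 In a plastic box 7 cm deep filled with sterilized diluvial soil, seeds of crops and weeds such as Digitaria ciliaris, Avena fatua and Amaranthus retroflexus are sown in spots and covered with about 1.5 cm of soil before greenhouse growth at 25–30° C.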

Lolium multiflorum Lam. [2] = test: Test Example 5: herbicidal effect by foliage application, plastic box (symbol K); settings: 320 g/ha, 3 weeks after application
Method in brief: as §3

Lolium multiflorum Lam. [3] = test: Test Example 4: herbicidal effect by soil treatment (symbol K); settings: for K: Lolium multiflorum Lam., herbicidal effect grade: 320 g/ha; for Herbicidal effect grade, K: Lolium multiflorum Lam.: application herbicide amount 320 g/ha
Method in brief: as §1

[4] = tested on: Echinochloa crus-galli var. crus-galli; test: Test Example 4: herbicidal effect by soil treatment (symbol H); settings: for H: Echinochloa crus-galli var. crus-galli, herbicidal effect grade: 320 g/ha; for Herbicidal effect grade, H: Echinochloa crus-galli var. crus-galli: application herbicide amount 320 g/ha
Method in brief: as §1

rapeseed = test: Test Example 5: effect on crop by foliage application, plastic box (symbol g); settings: 320 g/ha, 3 weeks after application
Method in brief: as §5

Veronica persica = test: Test Example 5: herbicidal effect by foliage application, plastic box (symbol R); settings: 320 g/ha, 3 weeks after application
Method in brief: as §3

beet = test: Test Example 4: effect on crop by soil treatment (symbol f); settings: for f: beet, effect grade on crop: 320 g/ha; for Effect on crop grade, f: beet: application herbicide amount 320 g/ha
Method in brief: as §4

wheat = test: Test Example 4: effect on crop by soil treatment (symbol e); settings: for e: wheat, effect grade on crop: 320 g/ha; for Effect on crop grade, e: wheat: application herbicide amount 320 g/ha
Method in brief: as §4

Digitaria ciliaris = test: Test Example 5: herbicidal effect by foliage application, plastic box (symbol F); settings: 320 g/ha, 3 weeks after application
Method in brief: as §3

[5] = tested on: Echinochloa crus-galli var. crus-galli; test: Test Example 5: herbicidal effect by foliage application, plastic box (symbol H); settings: 320 g/ha, 3 weeks after application
Method in brief: as §3

soybean [6] = test: Test Example 5: effect on crop by foliage application, plastic box (symbol d); settings: 320 g/ha, 3 weeks after application
Method in brief: as §5

rice = test: Test Example 4: effect on crop by soil treatment (symbol b); settings: for b: directly sowed rice plant, effect grade on crop: 320 g/ha; for Effect on crop grade, b: directly sowed rice plant: application herbicide amount 320 g/ha
Method in brief: as §4

transplanted rice plant = test: Test Example 1: effect on crop, application before weed generation in submerged conditions (symbol a); settings: application herbicide amount 320 g/ha
Method in brief: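 Alluvial soil pots flooded to 4 cm water, sown with Echinochloa oryzacola, Scirpus juncoides and Monochoria vaginalis, then transplanted with 2.5 leaf stage rice seedlings; pre-emergence application. Greenhouse 25° C. to 30° C.; scored 0–5 by herbicidal ratio 3 weeks after application.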

Row | SMILES | M: Abutilon theophrasti, herbicidal effect grade (Abutilon theophrasti) | Herbicidal effect grade, C: Monochoria vaginalis (Monochoria vaginalis) | Herbicidal effect grade, B: Scirpus juncoides (Scirpus juncoides) | N: Amaranthus retroflexus, herbicidal effect (criteria 0-5) (Amaranthus retroflexus) | d: soybean, effect grade on crop (soybean [1]) | I: Avena fatua, herbicidal effect grade (Avena fatua) | c: corn, effect on crop (criteria 0-5) (corn) | K: Lolium multiflorum Lam., herbicidal effect (criteria 0-5) (Lolium multiflorum Lam. [2]) | K: Lolium multiflorum Lam., herbicidal effect grade (Lolium multiflorum Lam. [3]) | H: Echinochloa crus-galli var. crus-galli, herbicidal effect grade [4] | g: rapeseed, effect on crop (criteria 0-5) (rapeseed) | R: Veronica persica, herbicidal effect (criteria 0-5) (Veronica persica) | f: beet, effect grade on crop (beet) | e: wheat, effect grade on crop (wheat) | F: Digitaria ciliaris, herbicidal effect (criteria 0-5) (Digitaria ciliaris) | H: Echinochloa crus-galli var. crus-galli, herbicidal effect (criteria 0-5) [5] | d: soybean, effect on crop (criteria 0-5) (soybean [6]) | b: directly sowed rice plant, effect grade on crop (rice) | Effect grade on crop, a: transplanted rice plant (transplanted rice plant) | Herbicidal effect grade, M: Abutilon theophrasti (Abutilon theophrasti) | also measured
1 | CON=C(C)CC1CC(OC(=O)COCc2ccccc2)=C(c2c(C)cc(C)cc2C)C1=O (stereo not shown) [1-094] | 2 (Herbicidal ratio of 20% or higher and lower than 40%) | 4 (Herbicidal ratio of 70% or higher and lower than 90%) | 5 (Herbicidal ratio of 90% or more (almost completely withered)) | 2 (Herbicidal ratio of 20% or higher and lower than 40%) | 1 (Herbicidal ratio of 5% or higher and lower than 20%) | 3 (Herbicidal ratio of 40% or higher and lower than 70%) | 5 (Herbicidal ratio of 90% or more (almost completely withered)) | 5 (Herbicidal ratio of 90% or more (almost completely withered)) | 5 (Herbicidal ratio of 90% or more (almost completely withered)) | 5 (Herbicidal ratio of 90% or more (almost completely withered)) | 4 (Herbicidal ratio of 70% or higher and lower than 90%) | 3 (Herbicidal ratio of 40% or higher and lower than 70%) | 0 (Herbicidal ratio of 5% or lower (almost no effect)) | 3 (Herbicidal ratio of 40% or higher and lower than 70%) | 5 (Herbicidal ratio of 90% or more (almost completely withered)) | 5 (Herbicidal ratio of 90% or more (almost completely withered)) | 2 (Herbicidal ratio of 20% or higher and lower than 40%) | 5 (Herbicidal ratio of 90% or more (almost completely withered)) | 5 (Herbicidal ratio of 90% or more (almost completely withered)) |  | 
2 | CC#CC(=O)OC1=C(c2c(C)cc(C)cc2C)C(=O)C(CC(C)=NOC)C1 (stereo not shown) [1-095] | 4 (Herbicidal ratio of 70% or higher and lower than 90%) | 1 (Herbicidal ratio of 5% or higher and lower than 20%) | 4 (Herbicidal ratio of 70% or higher and lower than 90%) | 3 (Herbicidal ratio of 40% or higher and lower than 70%) | 0 (Herbicidal ratio of 5% or lower (almost no effect)) | 3 (Herbicidal ratio of 40% or higher and lower than 70%) | 5 (Herbicidal ratio of 90% or more (almost completely withered)) | 5 (Herbicidal ratio of 90% or more (almost completely withered)) | 5 (Herbicidal ratio of 90% or more (almost completely withered)) | 5 (Herbicidal ratio of 90% or more (almost completely withered)) | 4 (Herbicidal ratio of 70% or higher and lower than 90%) | 3 (Herbicidal ratio of 40% or higher and lower than 70%) | 0 (Herbicidal ratio of 5% or lower (almost no effect)) | 4 (Herbicidal ratio of 70% or higher and lower than 90%) | 5 (Herbicidal ratio of 90% or more (almost completely withered)) | 5 (Herbicidal ratio of 90% or more (almost completely withered)) | 2 (Herbicidal ratio of 20% or higher and lower than 40%) | 5 (Herbicidal ratio of 90% or more (almost completely withered)) | 5 (Herbicidal ratio of 90% or more (almost completely withered)) |  | 
3 | CON=C(CC1CC(O)=C(c2c(C)cc(Br)cc2C)C1=O)C(C)C (stereo not shown) [9-001] |  | 0 (Herbicidal ratio of 5% or lower (almost no effect)) | 0 (Herbicidal ratio of 5% or lower (almost no effect)) |  |  |  |  |  |  |  |  |  |  |  |  |  |  |  | 4 (Herbicidal ratio of 70% or higher and lower than 90%) | 0 (Herbicidal ratio of 5% or lower (almost no effect)) | N: Amaranthus retroflexus, herbicidal effect grade (Amaranthus retroflexus): 0 (Herbicidal ratio of 5% or lower (almost no effect)); Effect on crop grade, d: soybean (soybean [1]): 0 (Herbicidal ratio of 5% or lower (almost no effect)); Herbicidal effect grade, I: Avena fatua (Avena fatua): 0 (Herbicidal ratio of 5% or lower (almost no effect)); c: corn, effect on crop grade (corn): 4 (Herbicidal ratio of 70% or higher and lower than 90%); K: Lolium multiflorum Lam., herbicidal effect grade (Lolium multiflorum Lam. [2]): 5 (Herbicidal ratio of 90% or more (almost completely withered)); Herbicidal effect grade, K: Lolium multiflorum Lam. (Lolium multiflorum Lam. [3]): 5 (Herbicidal ratio of 90% or more (almost completely withered)); Herbicidal effect grade, H: Echinochloa crus-galli var. crus-galli [4]: 5 (Herbicidal ratio of 90% or more (almost completely withered)); g: rapeseed, effect on crop grade (rapeseed): 2 (Herbicidal ratio of 20% or higher and lower than 40%); R: Veronica persica, herbicidal effect grade (Veronica persica): 0 (Herbicidal ratio of 5% or lower (almost no effect)); Effect on crop grade, f: beet (beet): 0 (Herbicidal ratio of 5% or lower (almost no effect)); Effect on crop grade, e: wheat (wheat): 0 (Herbicidal ratio of 5% or lower (almost no effect)); F: Digitaria ciliaris, herbicidal effect grade (Digitaria ciliaris): 4 (Herbicidal ratio of 70% or higher and lower than 90%); H: Echinochloa crus-galli var. crus-galli, herbicidal effect grade [5]: 5 (Herbicidal ratio of 90% or more (almost completely withered)); d: soybean, effect on crop grade (soybean [6]): 0 (Herbicidal ratio of 5% or lower (almost no effect)); Effect on crop grade, b: directly sowed rice plant (rice): 4 (Herbicidal ratio of 70% or higher and lower than 90%)
4 | CON=C(CC1CC(O)=C(c2c(C)cc(Br)cc2C)C1=O)C1CC1 (stereo not shown) [9-002] |  | 0 (Herbicidal ratio of 5% or lower (almost no effect)) | 0 (Herbicidal ratio of 5% or lower (almost no effect)) |  |  |  |  |  |  |  |  |  |  |  |  |  |  |  | 5 (Herbicidal ratio of 90% or more (almost completely withered)) | 0 (Herbicidal ratio of 5% or lower (almost no effect)) | N: Amaranthus retroflexus, herbicidal effect grade (Amaranthus retroflexus): 3 (Herbicidal ratio of 40% or higher and lower than 70%); Effect on crop grade, d: soybean (soybean [1]): 0 (Herbicidal ratio of 5% or lower (almost no effect)); Herbicidal effect grade, I: Avena fatua (Avena fatua): 3 (Herbicidal ratio of 40% or higher and lower than 70%); c: corn, effect on crop grade (corn): 5 (Herbicidal ratio of 90% or more (almost completely withered)); K: Lolium multiflorum Lam., herbicidal effect grade (Lolium multiflorum Lam. [2]): 5 (Herbicidal ratio of 90% or more (almost completely withered)); Herbicidal effect grade, K: Lolium multiflorum Lam. (Lolium multiflorum Lam. [3]): 5 (Herbicidal ratio of 90% or more (almost completely withered)); Herbicidal effect grade, H: Echinochloa crus-galli var. crus-galli [4]: 5 (Herbicidal ratio of 90% or more (almost completely withered)); g: rapeseed, effect on crop grade (rapeseed): 4 (Herbicidal ratio of 70% or higher and lower than 90%); R: Veronica persica, herbicidal effect grade (Veronica persica): 1 (Herbicidal ratio of 5% or higher and lower than 20%); Effect on crop grade, f: beet (beet): 0 (Herbicidal ratio of 5% or lower (almost no effect)); Effect on crop grade, e: wheat (wheat): 0 (Herbicidal ratio of 5% or lower (almost no effect)); F: Digitaria ciliaris, herbicidal effect grade (Digitaria ciliaris): 5 (Herbicidal ratio of 90% or more (almost completely withered)); H: Echinochloa crus-galli var. crus-galli, herbicidal effect grade [5]: 5 (Herbicidal ratio of 90% or more (almost completely withered)); d: soybean, effect on crop grade (soybean [6]): 0 (Herbicidal ratio of 5% or lower (almost no effect)); Effect on crop grade, b: directly sowed rice plant (rice): 5 (Herbicidal ratio of 90% or more (almost completely withered))
